In patent US20240122985A1, “ANTIBODIES, COMBINATIONS COMPRISING ANTIBODIES, BIOMARKERS, USES & METHODS” (KYMAB LIMITED, priority 2016, published 2024):

Tested on: peripheral blood and tissue T-cells
Test: Flow cytometry of T-cell subsets after HCT (Tscm, TN, TCM, TEM, Ki-67, OX40, Treg, cytokines)
Type: in vivo, Rhesus macaque
Procedure: Longitudinal peripheral blood samples were collected before and after haematopoietic stem cell transplant and at necropsy for flow cytometric analysis of lymphocyte subsets. Lung, liver, colon spleen and lymph node (axillary and inguinal) tissues were collected at necropsy and dissociated or enzymatically digested as appropriate for subsequent analysis of lymphocyte infiltrates by flow cytometry. Samples were analysed by multicolour flow cytometry using a LSRFortessa cell analyser (BD Biosciences) using the following T lymphocyte marker probes: CD3 (APC-Cy7 label; clone SP34-2, BD Biosciences), CD4 (BV786 label; clone L200, BD Biosciences), CD8 (BUV395 label; clone RPA-T 8, BD Bioscences), CD28 (PE-Cy7 label; clone CD28.2, eBioscience), CD95 (BV605 label; clone DX2, Biolegend). Proliferating cell populations were identified using Ki-67 (FITC label, Dako). CD4^+ or CD8^+T-cell subcompartments were labelled as follows: naïve T-cells (CD28^+/CD95^−), central memory T-cells (CD28^+/CD95^+), effector memory T-cells (CD28−/CD95^+).
Blood was collected into tubes with Sodium EDTA, and then red blood cells were lysed with lysis buffer containing ammonium chloride. Remaining leukocytes were washed with FACS buffer (PBS with 2% FBS) and stained with antibody cocktail (Table 7) for 30 minutes at 4° C. After staining, cells were washed and fixed in 1× BD Stabilising Fixative. Acquisition of flow data was performed on BD LSR Fortessa cytometer. Data were analysed using FloJo. T-cells were defined as CD3^+CD14/CD20-lymphocytes.
Peripheral blood mononuclear cells were isolated at different time points by Ficoll-Paque gradient and then were stained for cell surface markers (CD3, CD4, CD8) followed by fixation/permeabilization (using BD Cytofix/Cytoperm kit) and intracellular staining for Ki-67. Ki-67 expression in NHP peripheral blood CD4^+ (FIG. 8A) and CD8^+ (FIG. 8B) was measured. T-cells before (pre-HCT) and following allogeneic HCT in recipients being untreated (No Rx) or treated with OX40L antibody. Plots show Ki-67 expression in NHP peripheral blood bulk CD4^+ (FIG. 8C) and CD8^+ (FIG. 8D) T-cells before (pre-HCT) and following allogeneic HCT in recipients treated with rapamycin and with a combination of rapamycin and anti-OX40L antibody. Statistical analysis was performed using Holm-Sidak multiple-comparison post-test. *p<0.05.
Peripheral blood mononuclear cells were isolated prior (pre-HCT) and during terminal analysis following allogeneic HCT without immunoprophylaxis (No Rx), or treatment with rapamycin, or treatment with anti-OX40L antibody, or treatment with a combination of anti-OX40L antibody and rapamycin by Ficoll-Paque gradient and then were stained for cell surface markers (CD3, CD4, CD8, CD25, CD127 and OX40) followed by fixation/permeabilization (using BioLegend FoxP3 kit) and intracellular staining for FoxP3.
Animals were kept on the indicated immunoprophylaxis regimens. Time-points with n<3 were censored. Multiple t-test with Holm-Sidak correction was performed between the groups.
Whole blood cells were stained for CD3, CD4, CD8, CD14, CD20, CD45RA and CCR7 and then analysed by FACS. T-cells were defined as CD3^+CD14^−CD20^− lymphocytes and divided into CD4^+ and CD8^+ T-cell subsets. Memory T-cells (Tmem) were defined as CD45RA- and effector Tcells (Teff) as CD45RA+CCR7^− Tcells in both CD4 and CD8 gates. Combined populations of memory+effector CD4^+(FIG. 10A) and CD8^+(FIG. 10B) T-cells were longitudinally tracked before and at different time point following allogeneic HCT in recipients treated with anti-OX40L antibody, treated with rapamycin, or with a combination of rapamycin and anti-OX40L antibody. […]

| Molecule | frequency of OX40^+ Treg cells (FIGS. 8O and 8O-1) | relative and absolute numbers of CD4^+ TCM cells (after HCT, p<0.05) | CD4^+ T-cell production of IFNγ, TNFα or IL-2 (after transplant (FIG. 8N)) | ability of CD4^+ T-cells to express IL17A (after transplant (FIG. 8N)) | proliferation of CD8^+ T-cells (monotherapy (FIGS. 8F & 8G)) | sustained CD4^+ T-cell proliferation, as measured by Ki67 expression (monotherapy (FIGS. 8F & 8G)) | Treg to Tconv ratio (peripheral blood after HCT (FIG. 11B)) | Ki-67 expression on T-cells / T-cell proliferation (NHP peripheral blood after allogeneic HCT (FIG. 8)) | CD4^+ Tscm expansion (Rhesus macaque after allogeneic HCT (FIG. 4)) | T(eff+mem) cell population (after allogeneic HCT (FIG. 10)) | proportion of Tscm cells compared with the sirolimus and Tac/MTX treatment (peripheral blood, post-HCT (FIG. 6a, 6b)) |
| --- | --- | --- | --- | --- | --- | --- | --- | --- | --- | --- | --- |
| KY1005: antibody used for GVHD immunoprophylaxis in NHP, measured by antigen (OX40L) capture assay; not tied to 02D10 in this part | does not affect | significant reductions | without affecting | specifically reducing their ability to express IL17A | less effect | significant inhibitory impact | protected against the significant drop | – | – | – | – |
| 2D10 IgG4PE: fully human anti-human OX40L monoclonal antibody, human IgG4-PE; VH Seq ID No:34, VL Seq ID No:48; 2D10-1 to -4 are stable pools (antibody, V domains shown, human IgG4-PE constant regions; 02D10 - VH Amino Acid Sequence; 02D10 - VL Amino Acid Sequence) VH: EVQLVESGGGLVQPGGSLRLSCAASGFTFSNYAMNWVRQAPGKGLEWVSTISGSGGATRYADSVKGRFTISRDNSRNTVYLQMNSLRVEDTAVFYCTKDRLIMATVRGPYYYGMDVWGQGTTVTVSS VL: DIQMTQSPSSLSASVGDRVTITCRASQSISSYLNWYQQKPGKAPNLLIYAASSLQSGVPSRFSGSGSETDFTLTISSLQPEDFATYYCQQSHSVSFTFGPGTKVDIK | – | – | – | – | – | – | – | reverses that expression | limited CD4^+ Tscm expansion | does not effectively suppress proliferation of CD8^+T(eff+mem) cells | sustained inhibition |
